In assay [1] the target is T1, Cell division inhibitor SulA (Escherichia coli K-12) (UniProt P0AFZ5).
T1 sequence (whole entry): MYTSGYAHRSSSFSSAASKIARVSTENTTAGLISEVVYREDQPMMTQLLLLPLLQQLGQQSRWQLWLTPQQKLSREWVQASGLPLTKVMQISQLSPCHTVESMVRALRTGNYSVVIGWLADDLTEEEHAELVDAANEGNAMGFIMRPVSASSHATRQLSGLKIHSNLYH
In words: Induction of Escherichia coli K12 MG1655 sulA promotor measured at 30 mins interval for 20 hrs by fluorescence assay relative to control. Conditions: Escherichia coli str. K-12 substr. MG1655.

The target of assay [2] is T2, DNA repair protein RecN (Escherichia coli) (UniProt P05824).
T2 sequence (whole entry): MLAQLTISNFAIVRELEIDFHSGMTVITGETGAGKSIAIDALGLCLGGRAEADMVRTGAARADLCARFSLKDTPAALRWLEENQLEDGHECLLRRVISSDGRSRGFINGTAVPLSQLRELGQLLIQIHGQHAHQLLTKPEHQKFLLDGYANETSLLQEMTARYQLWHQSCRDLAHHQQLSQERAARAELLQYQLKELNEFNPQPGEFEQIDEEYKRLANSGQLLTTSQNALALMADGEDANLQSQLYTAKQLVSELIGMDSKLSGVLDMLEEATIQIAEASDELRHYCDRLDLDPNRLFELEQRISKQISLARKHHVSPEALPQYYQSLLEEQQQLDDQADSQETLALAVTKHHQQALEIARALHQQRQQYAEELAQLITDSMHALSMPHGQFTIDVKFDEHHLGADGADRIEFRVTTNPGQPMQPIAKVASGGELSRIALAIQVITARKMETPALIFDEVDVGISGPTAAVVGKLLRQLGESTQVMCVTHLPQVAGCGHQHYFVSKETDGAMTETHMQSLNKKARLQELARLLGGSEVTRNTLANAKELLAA
The assay can be described thus: Induction of Escherichia coli K12 MG1655 recN promotor measured at 30 mins interval for 20 hrs by fluorescence assay relative to control. Conditions: Escherichia coli str. K-12 substr. MG1655.

The target of assay [3] is T3, Protein RecA (Escherichia coli K-12) (UniProt P0A7G6).
T3 sequence (whole entry): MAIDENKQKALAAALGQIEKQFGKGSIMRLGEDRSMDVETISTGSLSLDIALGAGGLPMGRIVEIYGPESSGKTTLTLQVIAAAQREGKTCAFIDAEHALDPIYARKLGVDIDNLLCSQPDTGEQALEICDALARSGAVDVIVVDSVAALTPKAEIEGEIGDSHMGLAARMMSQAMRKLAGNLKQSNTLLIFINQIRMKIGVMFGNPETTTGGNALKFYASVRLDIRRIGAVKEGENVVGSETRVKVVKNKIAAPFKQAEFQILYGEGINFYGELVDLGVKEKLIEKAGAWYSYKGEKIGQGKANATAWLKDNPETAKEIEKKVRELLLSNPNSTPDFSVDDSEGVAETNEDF
The assay can be described thus: Induction of Escherichia coli K12 MG1655 recA promotor measured at 30 mins interval for 20 hrs by fluorescence assay relative to control. Conditions: Escherichia coli str. K-12 substr. MG1655.

For assay [4], the target named is T4, LexA repressor (Escherichia coli) (UniProt P0A7C2).
T4 sequence (whole entry): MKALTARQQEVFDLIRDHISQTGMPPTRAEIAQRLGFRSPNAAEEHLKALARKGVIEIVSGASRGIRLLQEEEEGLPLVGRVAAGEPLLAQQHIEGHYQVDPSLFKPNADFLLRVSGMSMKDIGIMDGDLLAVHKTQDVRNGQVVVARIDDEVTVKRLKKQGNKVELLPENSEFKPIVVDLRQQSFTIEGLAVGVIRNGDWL
The assay can be described thus: Induction of Escherichia coli K12 MG1655 lexA promotor measured at 30 mins interval for 20 hrs by fluorescence assay relative to control. Conditions: Escherichia coli str. K-12 substr. MG1655.

Assay [5] relates to Klebsiella pneumoniae. In words: Antimicrobial activity against Klebsiella pneumoniae M6 assessed as mutation frequency at 4 times MIC measured after 48 hrs. It is filed as functional.
Assay [6] concerns Acinetobacter baumannii. The assay can be described thus: Antimicrobial activity against Acinetobacter baumannii ATCC 17978 assessed as mutation frequency at 4 times MIC measured after 48 hrs. It is filed as functional.
The test system of assay [7] is Escherichia coli. The assay can be described thus: Antimicrobial activity against multidrug-resistant Escherichia coli NCTC 12923 assessed as mutation frequency at 4 times MIC measured after 48 hrs. It is filed as functional.

As to `O=C(O)c1cn(C2CC2)c2cc(N3CCNCC3)c(F)cc2c1=O` [CIPROFLOXACIN], the fold change (FC) in assay [1] was in the range of 17 to 41; in assay [2], 14 to 32; in assay [3], 20 to 35; in assay [4], 5 to 13. The results for the Activity in assay [5], in assay [6] and in assay [7] were 8.9 ×10⁻⁷ No_unit, 8.4 ×10⁻⁷ No_unit and 4.4 ×10⁻⁷ No_unit, respectively.

The record behind these values is ChEMBL document CHEMBL4610120, “New Broad-Spectrum Antibiotics Containing a Pyrrolobenzodiazepine Ring with Activity against Multidrug-Resistant Gram-Negative Bacteria” (J Med Chem, 2020).
